Drawing on US12325697B2 (Nimbus Clio, Inc., priority 2021, dated 2025), this text covers IC50 and EC50 for 16 compounds.

Test [1] has as its target Recombinant human Cbl-b (aa 36-427) (Homo sapiens (Human), UniProt Q13191). Kind of test: Cbl-b Biochemical Assay (TR-FRET). The following applies: read-out: TR-FRET hCbl-b IC50. In a few lines:
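Two-step TR-FRET: 6 nM biotinylated Cbl-b preincubated 30-60 min with compound, then 60 min at RT with 1-2.5 nM Src-Zap70 and 0.5 mM ATP in HEPES pH 7.0 buffer, 1% DMSO. Stopped with 5 mM EDTA plus 100 nM UBE2D2-Ub-FL-BODIPY and 1 nM streptavidin-Tb, 60 min; 520 nm signal; IC50 from 4-parameter fit.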

Test [2] deals with Jurkat (clone E6-1) cells, NFAT luciferase reporter. Kind of test: Jurkat Reporter Assay (NFAT Luciferase). It is filed as cell-based. Particulars: Homo sapiens, anti-CD3 stimulation, 6 hr, read-out: Jurkat NFAT EC50.
Test [3] has as its system Phospho-Zap70 (Y-319) in Jurkat wild-type (clone E6-1) cells. Kind of test: Jurkat pZAP70 HTRF Assay. The test is classed as cell-based. The following applies: Homo sapiens, anti-CD3 5 μg/ml, 3 hr, read-out: ZAP70 Jurkat EC50.

Sequence of Recombinant human Cbl-b (aa 36-427) (Q13191 36-427): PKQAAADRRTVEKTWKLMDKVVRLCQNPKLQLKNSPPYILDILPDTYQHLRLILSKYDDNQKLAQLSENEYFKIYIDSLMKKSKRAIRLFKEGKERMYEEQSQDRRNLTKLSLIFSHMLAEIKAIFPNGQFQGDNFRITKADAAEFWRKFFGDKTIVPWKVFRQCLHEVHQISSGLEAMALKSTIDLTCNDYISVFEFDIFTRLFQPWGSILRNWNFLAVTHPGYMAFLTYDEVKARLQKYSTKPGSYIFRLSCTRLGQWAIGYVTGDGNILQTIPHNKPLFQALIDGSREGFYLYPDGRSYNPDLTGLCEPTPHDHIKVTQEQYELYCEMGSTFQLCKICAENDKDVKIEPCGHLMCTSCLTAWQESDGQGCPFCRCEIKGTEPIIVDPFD

As to `Cn1cnnc1-c1ccccc1-c1cc(C2CC2)nc(N2Cc3c(cc(CNCC4(O)CCC4)cc3C(F)(F)F)C2=O)c1` [ADZ-2, 2-{6-Cyclopropyl-4-[2-(4-methyl-1,2,4-triazol-3-yl)phenyl]pyridin-2-yl}-6-({[(1-hydroxycyclobutyl)methyl]amino}methyl)-4-(trifluoromethyl)-3H-isoindol-1-one], the IC50 in test [1] was ≤ 200 nM. Further, the EC50 in test [2] and in test [3] was < 200 nM throughout.

With `CCNc1cc(-c2ccc(C#N)cc2-c2nncn2C)cc(N2Cc3c(cc(NC)cc3C(F)(F)F)C2=O)n1` [AFA-2, 4-[2-(ethylamino)-6-[6-(methylamino)-1-oxo-4-(trifluoromethyl)-3H-isoindol-2-yl]pyridin-4-yl]-3-(4-methyl-1,2,4-triazol-3-yl)benzonitrile], the IC50 in test [1] is ≤ 200 nM. Also, the EC50 in test [2] was < 200 nM; in test [3], 200 to 1000 nM.

Regarding `Cn1cnnc1-c1cc(F)ccc1-c1cc(C2CC2)nc(N2Cc3ccc(CNCC4(O)CCCC4)cc3C2=O)c1` [AGP-1, 2-{6-Cyclopropyl-4-[4-fluoro-2-(4-methyl-1,2,4-triazol-3-yl)phenyl]pyridin-2-yl}-6-({[(1-hydroxycyclopentyl)methyl]amino}methyl)-3H-isoindol-1-one], the IC50 in test [1] was ≤ 200 nM. Further, the figures for the EC50 in test [2] and in test [3] were < 200 nM and 200 to 1000 nM, respectively.

On to `CCNc1cc(-c2ccc(C#N)cc2-c2nncn2C)cc(N2Cc3c(cc(COC4CC4)cc3C(F)(F)F)C2=O)n1` [AEV-3, 4-{2-[6-(Cyclopropoxymethyl)-1-oxo-4-(trifluoromethyl) -3H-isoindol-2-yl]-6-(ethylamino)pyridin-4-yl}-3-(4-methyl-1,2,4-triazol-3-yl) benzonitrile], for which the IC50 in test [1] was ≤ 200 nM. Also, the EC50 is < 200 nM in test [2] and 1000 to 10000 nM in test [3].

With `CCNc1cc(-c2ccc(C#N)cc2-c2nncn2C)cc(N2Cc3c(cc(CNCCOC)cc3C(F)(F)F)C2=O)n1` [AEC-2, 4-[2-(Ethylamino)-6-(6-{[(2-methoxyethyl)amino]methyl}-1-oxo-4-(trifluoromethyl)-3H-isoindol-2-yl)pyridin-4-yl]-3-(4-methyl-1,2,4-triazol-3-yl)benzonitrile], the IC50 in test [1] was ≤ 200 nM. Moreover, the EC50 in test [2] and in test [3] was < 200 nM in each case.

For `Cn1cnnc1-c1cnn(C)c1-c1cc(C2CC2)nc(N2Cc3c(cc(COCC4(O)CCC4)cc3C(F)(F)F)C2=O)c1` [AFV-3, 2-{6-Cyclopropyl-4-[2-methyl-4-(4-methyl-1,2,4-triazol-3-yl)pyrazol-3-yl]pyridin-2-yl}-6-{[(1-hydroxycyclobutyl)methoxy]methyl}-4-(trifluoromethyl)-3H-isoindol-1-one], the IC50 in test [1] was ≤ 200 nM. The EC50 in test [2] is < 200 nM; in test [3], 200 to 1000 nM.

For the compound `CCNc1cc(-c2c(-c3nncn3C)cnn2C)cc(N2Cc3c(cc(CO[C@@H]4CCC[C@@H]4O)cc3C(F)(F)F)C2=O)n1` [ADH-1, 2-[6-(Ethylamino)-4-[2-methyl-4-(4-methyl-1,2,4-triazol-3-yl)pyrazol-3-yl]pyridin-2-yl]-6-({[(1R,2S)-2-hydroxycyclopentyl]oxy}methyl)-4-(trifluoromethyl)-3H-isoindol-1-one], in test [1], the IC50 was ≤ 200 nM. Moreover, the figures for the EC50 in test [2] and in test [3] were < 200 nM and 200 to 1000 nM, respectively.

Consider `Cn1cnnc1-c1cc(F)ccc1-c1cc(C2CC2)nc(N2Cc3ccc(CNCC4(O)CCC4)cc3C2=O)c1` [AFH-1, 2-{6-Cyclopropyl-4-[4-fluoro-2-(4-methyl-1,2,4-triazol-3-yl)phenyl]pyridin-2-yl}-6-({[(1-hydroxycyclobutyl)methyl]amino}methyl)-3H-isoindol-1-one], for which the IC50 in test [1] is ≤ 200 nM. In addition, the EC50 in test [2] and in test [3] was < 200 nM each time.

`Cn1cnnc1-c1cc(C#N)ccc1-c1cc(C2CC2)nc(N2Cc3ccc(CNCC4(O)CCC4)cc3C2=O)c1` [AFJ-1, 4-{2-Cyclopropyl-6-[6-({[(1-hydroxycyclobutyl)methyl]amino}methyl)-1-oxo-3H-isoindol-2-yl]pyridin-4-yl}-3-(4-methyl-1,2,4-triazol-3-yl)benzonitrile]: in test [1], the IC50 is ≤ 200 nM. Moreover, the EC50 in test [2] and in test [3] was < 200 nM each time.

As for `C[C@H](NCC1(O)CCC1)c1cc2c(c(C(F)(F)F)c1)CN(c1cc(-c3ccccc3-c3nncn3C)cc(C3CC3)n1)C2=O` (single isomer, unassigned) [AFT-2], the IC50 in test [1] is ≤ 200 nM. The EC50 in test [2] and in test [3] was < 200 nM each time.

For the compound `COc1cc2c(cc1CNCC1(O)CCC1)C(=O)N(c1cc(-c3ccccc3-c3nncn3C)cc(C3CC3)n1)C2` [AEM-9, 2-(6-Cyclopropyl-4-(2-(4-methyl-4H-1,2,4-triazol-3-yl)phenyl)pyridin-2-yl)-6-((((1-hydroxycyclobutyl)methyl)amino)methyl)-5-methoxyisoindolin-1-one], the IC50 in test [1] was ≤ 200 nM. The EC50 in test [2] and in test [3] was < 200 nM in each case.

`CCNc1cc(-c2ccc(C#N)cc2-c2nncn2C)cc(N2Cc3c(cc(CN4CCC[C@H](C)C4)cc3C(F)(F)F)C2=O)n1` [ADT-2, 4-[2-(Ethylamino)-6-(6-{[(3S)-3-methylpiperidin-1-yl]methyl}-1-oxo-4-(trifluoromethyl)-3H-isoindol-2-yl)pyridin-4-yl]-3-(4-methyl-1,2,4-triazol-3-yl)benzonitrile]: the IC50 in test [1] was ≤ 200 nM. In addition, the EC50 in test [2] and in test [3] was < 200 nM throughout.

On to `CCNc1cc(-c2c(-c3nncn3C)cnn2C)cc(N2Cc3c(cc(CNCC4(O)CCC4)cc3C(F)(F)F)C2=O)n1` [ADJ-1, 2-[6-(Ethylamino)-4-[2-methyl-4-(4-methyl-1,2,4-triazol-3-yl)pyrazol-3-yl]pyridin-2-yl]-6-({[(1-hydroxycyclobutyl)methyl]amino}methyl)-4-(trifluoromethyl)-3H-isoindol-1-one], for which, in test [1], the IC50 is ≤ 200 nM. The EC50 in test [2] and in test [3] was < 200 nM in each case.

As for `Cn1cnnc1-c1cc(F)ccc1-c1cc(C2CC2)nc(N2Cc3c(cccc3C(F)(F)F)C2=O)c1` [AND-2, 2-{6-Cyclopropyl-4-[4-fluoro-2-(4-methyl-1,2,4-triazol-3-yl)phenyl]pyridin-2-yl}-4-(trifluoromethyl)-3H-isoindol-1-one], the IC50 in test [1] was ≤ 200 nM. Further, the EC50 in test [2] is 200 to 1000 nM; in test [3], 1000 to 10000 nM.

`COCCNCc1cc2c(c(C(F)(F)F)c1)CN(c1cccc(-c3ccc(C#N)cc3-c3nncn3C)c1)C2=O` [AEB-2, 3′-(6-(((2-Methoxyethyl)amino)methyl)-1-oxo-4-(trifluoromethyl)isoindolin-2-yl)-2-(4-methyl-4H-1,2,4-triazol-3-yl)-[1,1′-biphenyl]-4-carbonitrile]: the IC50 in test [1] is ≤ 200 nM. Besides, the EC50 in test [2] and in test [3] was < 200 nM throughout.

As to `Cn1cnnc1-c1cc(C#N)ccc1-c1cc(C2CC2)nc(N2Cc3c(cc(CO)cc3C(F)(F)F)C2=O)c1` [AES-1, 4-(2-Cyclopropyl-6-(6-(hydroxymethyl)-1-oxo-4-(trifluoromethyl)isoindolin-2-yl)pyridin-4-yl)-3-(4-methyl-4H-1,2,4-triazol-3-yl)benzonitrile], in test [1], the IC50 is ≤ 200 nM. The EC50 in test [2] was < 200 nM; in test [3], 200 to 1000 nM.
